Source: patent US11840686B2, “Modulation of prekallikrein (PKK) expression” (Ionis Pharmaceuticals, Inc., priority 2013, dated 2023)
Strand notation (5' to 3'): a small letter for the sugar, then the base; units joined by * are phosphorothioate-linked, units joined directly phosphodiester-linked; [ ] holds rarer units or linkages, { } end groups; capitals alone tell only the bases. e = 2'-O-(2-methoxyethyl) (MOE); [5mC] = 5-methylcytosine; d = 2'-deoxy (DNA)

system: human PKK mRNA; experiment: Antisense inhibition of human PKK mRNA in HepaRG cells, 5,000 nM (Example 2); type: cell-based; details: HepaRG cells, 5,000 nM antisense oligonucleotide, human PKK mRNA; Table 18
Outline: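 qRT-PCR (RTS3454) read-out, RIBOGREEN-normalized; % inhibition vs untreated cells. HepaRG, 20,000 cells/well, electroporation, 5,000 nM ASO, ~24 h.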

Substance | % inhibition [%]
548728 (DNA eT*eA*e[5mC]*eT*dA*dG*dT*dT*dT*d[5mC]*d[5mC]*dT*dA*dT*eA*eA*e[5mC]; antisense) [compound 548728] | 0
548712 (DNA eA*e[5mC]*eT*dG*dT*dA*d[5mC]*dT*dA*dG*dT*dT*dT*e[5mC]*e[5mC]*eT; antisense) [compound 548712] | 9

same assay, conditions: HepaRG cells, 5,000 nM antisense oligonucleotide; 5-10-5 gapmers; Table 16

Substance | % inhibition [%]
547698 (antisense eA*e[5mC]*e[5mC]*eT*eA*dT*dA*dA*d[5mC]*dT*dA*dT*dA*dA*d[5mC]*eA*eA*eT*eA*eT) [compound 547698] | 0
547688 (antisense e[5mC]*eA*e[5mC]*eT*eG*dT*d[5mC]*d[5mC]*dT*dA*dT*dA*dA*d[5mC]*dT*eA*eT*eA*eT*e[5mC]) [compound 547688] | 47
547678 (antisense eT*eA*e[5mC]*e[5mC]*eT*dA*dT*dA*dT*d[5mC]*dA*d[5mC]*dT*dG*dT*eA*eA*e[5mC]*eT*eA) [compound 547678] | 21
547695 (antisense eA*e[5mC]*eT*eG*eT*d[5mC]*d[5mC]*dT*dA*dT*dA*dA*d[5mC]*dT*dA*eT*eT*eA*e[5mC]*eA) [compound 547695] | 31
547701 (antisense e[5mC]*eA*eT*e[5mC]*eA*d[5mC]*dT*dG*dT*dA*d[5mC]*d[5mC]*dT*dA*dT*eA*eA*e[5mC]*eT*eA) [compound 547701] | 49
547705 (antisense eG*e[5mC]*eA*e[5mC]*e[5mC]*d[5mC]*dA*dA*dT*dA*d[5mC]*dA*dG*dG*dG*e[5mC]*e[5mC]*eA*eG*eG) [compound 547705] | 69

same assay, conditions: HepaRG cells, 5,000 nM antisense oligonucleotide; 5-10-5 gapmers; Table 17

Substance | % inhibition [%]
547081 (e[5mC]*eT*eG*eT*eA*dG*dT*d[5mC]*d[5mC]*dA*d[5mC]*dT*dA*d[5mC]*dA*e[5mC]*eA*eG*e[5mC]*eA; antisense) [compound 547081] | 83

same assay, conditions: HepaRG cells, electroporation with 5,000 nM antisense oligonucleotide, approximately 24 hours, PKK mRNA by RT-PCR (RTS3454), relative to untreated control cells; Table 6 experiment

Substance | % inhibition [%]
547357 (e[5mC]*eT*eT*eT*eA*dA*dT*dA*dG*dG*d[5mC]*dA*dA*dT*dT*eG*eT*eT*e[5mC]*e[5mC]; antisense) [compound 547357] | 78
546203 (antisense eA*eA*eT*eT*eG*dT*dT*d[5mC]*d[5mC]*dG*dG*dT*dA*d[5mC]*dT*e[5mC]*eT*eG*e[5mC]*e[5mC]) [compound 546203] | 76
547319 (antisense eG*eA*eA*eT*eG*dT*d[5mC]*d[5mC]*dA*dG*dA*dA*dA*d[5mC]*dT*eG*e[5mC]*eA*e[5mC]*e[5mC]) [compound 547319] | 62

same assay, conditions: HepaRG cells, electroporation, 5,000 nM antisense oligonucleotide, approx. 24 hours, primer probe set RTS3454, relative to untreated control cells; Table 11

Substance | % inhibition [%]
547491 (antisense e[5mC]*eA*eT*eG*eT*dA*d[5mC]*dT*d[5mC]*dA*dG*d[5mC]*dG*dA*d[5mC]*eT*eT*eT*eG*eG) [compound 547491] | 47

same assay, conditions: HepaRG cells, electroporation, 5,000 nM antisense oligonucleotide, approx. 24 hours, primer probe set RTS3454, relative to untreated control cells; Table 12

Substance | % inhibition [%]
546409 (eG*eG*eG*eT*eT*dT*d[5mC]*dT*dG*d[5mC]*d[5mC]*dA*dA*d[5mC]*dA*eG*eT*eT*eT*e[5mC]; antisense) [compound 546409] | 77
546511 (eG*eT*eG*eA*eT*dG*dA*dA*dA*dG*dT*dA*d[5mC]*dA*dG*e[5mC]*eA*eG*e[5mC]*eA; antisense) [compound 546511] | 50
547554 (antisense eG*e[5mC]*eT*e[5mC]*eT*dG*dA*dT*dT*dG*dG*dG*dT*d[5mC]*dA*e[5mC]*e[5mC]*eA*e[5mC]*eA) [compound 547554] | 50
547540 (antisense eT*eT*eG*eT*eG*dT*dG*dG*d[5mC]*d[5mC]*d[5mC]*dT*d[5mC]*dT*dT*eA*eA*eG*eT*e[5mC]) [compound 547540] | 44
546500 (eT*eT*e[5mC]*e[5mC]*eA*dT*dG*d[5mC]*dA*dT*dA*d[5mC]*dT*d[5mC]*dG*e[5mC]*e[5mC]*eT*eT*eT; antisense) [compound 546500] | 46
547539 (antisense eA*eG*eA*eA*e[5mC]*dT*d[5mC]*d[5mC]*dA*dG*d[5mC]*dA*dG*dA*dA*eA*eT*e[5mC]*e[5mC]*eT) [compound 547539] | 43
546700 (eT*eG*eG*eT*eT*d[5mC]*d[5mC]*d[5mC]*dT*dA*dG*d[5mC]*dG*dG*dT*e[5mC]*e[5mC]*eA*eG*eA; antisense) [compound 546700] | 78

same assay, conditions: Table 7; HepaRG cells, electroporation with 5,000 nM antisense oligonucleotide, approx. 24 hours; PKK mRNA by RT-PCR (RTS3454), relative to untreated control cells

Substance | % inhibition [%]
547395 (eA*eA*eG*eT*eT*d[5mC]*dT*dT*dT*dT*dG*d[5mC]*dA*dG*dG*eT*eT*eA*eA*eA; antisense) [compound 547395] | 15
547390 (eA*eT*e[5mC]*e[5mC]*eA*dG*dA*dT*dA*dT*dG*dG*dT*dG*dT*eT*eT*eT*e[5mC]*eT; antisense) [compound 547390] | 63
546226 (antisense e[5mC]*e[5mC]*eA*eT*eA*d[5mC]*dA*dT*dT*dT*dG*dT*dA*dT*dA*eG*eA*eA*eT*eG) [compound 546226] | 37
546239 (eG*eT*eT*e[5mC]*eT*dT*dT*dT*dG*d[5mC]*dA*dG*dG*dT*dT*eA*eA*eA*eA*eG; antisense) [compound 546239] | 47

same assay, conditions: Table 8; HepaRG cells, electroporation with 5,000 nM antisense oligonucleotide, approx. 24 hours; PKK mRNA by RT-PCR (RTS3454), relative to untreated control cells

Substance | % inhibition [%]
547419 (e[5mC]*eT*eT*eA*eA*dG*dA*dA*dA*d[5mC]*dA*d[5mC]*dT*dT*dA*e[5mC]*eA*e[5mC]*eT*eT; antisense) [compound 547419] | 51
547414 (eT*eG*eG*eG*eA*dG*dT*dA*dA*dA*dG*dA*dA*dT*dA*eA*eG*eT*eG*eA; antisense) [compound 547414] | 76
546266 (eA*e[5mC]*eA*eG*eT*d[5mC]*dT*dT*d[5mC]*dT*dG*dG*dG*dA*dG*eT*eA*eA*eA*eG; antisense) [compound 546266] | 63

same assay, conditions: Table 9 experiment; HepaRG cells, 20,000 cells per well, electroporation with 5,000 nM antisense oligonucleotide, approx. 24 hours; PKK mRNA by RT-PCR (RTS3454), relative to untreated control cells

Substance | % inhibition [%]
546325 (antisense e[5mC]*eA*eG*eT*eT*dG*dG*dT*dA*dT*dA*dA*dA*dT*dT*eG*eT*eG*e[5mC]*eT) [compound 546325] | 74
546351 (antisense eT*eT*eG*e[5mC]*eT*d[5mC]*d[5mC]*d[5mC]*dT*dG*d[5mC]*dG*dG*dG*d[5mC]*eA*e[5mC]*eA*eG*e[5mC]) [compound 546351] | 82
547472 (antisense eT*e[5mC]*eA*e[5mC]*e[5mC]*dT*dT*dT*d[5mC]*dT*d[5mC]*d[5mC]*dT*dT*d[5mC]*eG*eA*eG*eA*eA) [compound 547472] | 44
546345 (antisense e[5mC]*eA*eA*eG*e[5mC]*dA*dT*d[5mC]*dT*dT*dT*dT*d[5mC]*d[5mC]*d[5mC]*e[5mC]*e[5mC]*eT*eT*e[5mC]) [compound 546345] | 86
547467 (antisense eT*eG*eG*eT*eA*dT*dA*dA*dA*dT*dT*dG*dT*dG*d[5mC]*eT*eT*eG*eT*eG) [compound 547467] | 80

same assay, conditions: Table 10 experiment; HepaRG cells, 20,000 cells per well, electroporation with 5,000 nM antisense oligonucleotide, approx. 24 hours; PKK mRNA by RT-PCR (RTS3454), relative to untreated control cells

Substance | % inhibition [%]
546325 (antisense e[5mC]*eA*eG*eT*eT*dG*dG*dT*dA*dT*dA*dA*dA*dT*dT*eG*eT*eG*e[5mC]*eT) [compound 546325] | 79
546351 (antisense eT*eT*eG*e[5mC]*eT*d[5mC]*d[5mC]*d[5mC]*dT*dG*d[5mC]*dG*dG*dG*d[5mC]*eA*e[5mC]*eA*eG*e[5mC]) [compound 546351] | 60
547472 (antisense eT*e[5mC]*eA*e[5mC]*e[5mC]*dT*dT*dT*d[5mC]*dT*d[5mC]*d[5mC]*dT*dT*d[5mC]*eG*eA*eG*eA*eA) [compound 547472] | 42
546345 (antisense e[5mC]*eA*eA*eG*e[5mC]*dA*dT*d[5mC]*dT*dT*dT*dT*d[5mC]*d[5mC]*d[5mC]*e[5mC]*e[5mC]*eT*eT*e[5mC]) [compound 546345] | 80
547467 (antisense eT*eG*eG*eT*eA*dT*dA*dA*dA*dT*dT*dG*dT*dG*d[5mC]*eT*eT*eG*eT*eG) [compound 547467] | 65

same assay, conditions: Table 13; human PKK mRNA in HepaRG cells; 5-10-5 gapmers

Substance | % inhibition [%]
547559 (eG*eA*eG*e[5mC]*eA*d[5mC]*dA*dG*dA*dT*d[5mC]*dT*d[5mC]*dT*dT*e[5mC]*eA*eA*eG*eT; antisense) [compound 547559] | 69

same assay, conditions: human PKK mRNA in HepaRG cells; 5-10-5 gapmers; Table 14

Substance | % inhibition [%]
547601 (antisense eG*eT*eA*e[5mC]*e[5mC]*dT*dA*dT*dA*dA*d[5mC]*dT*d[5mC]*dT*dA*eA*e[5mC]*eA*eG*eT) [compound 547601] | 75
546851 (eA*eG*eT*eA*eT*d[5mC]*dA*d[5mC]*dT*dG*dT*d[5mC]*d[5mC]*dT*dA*eT*eA*eT*e[5mC]*eA; antisense) [compound 546851] | 81
547592 (eT*e[5mC]*e[5mC]*eT*eA*dT*dA*dA*d[5mC]*dT*dA*dT*dA*dA*d[5mC]*eA*eG*eT*eA*eT; antisense) [compound 547592] | 27

same assay, conditions: human PKK mRNA, HepaRG cells, 5,000 nM antisense oligonucleotide, Table 18

Substance | % inhibition [%]
548735 (DNA eA*eT*e[5mC]*eA*d[5mC]*dT*dG*dT*dA*d[5mC]*dT*dA*dG*dT*eT*eT*e[5mC]; antisense) [compound 548735] | 48
548783 (antisense eA*e[5mC]*e[5mC]*eT*dA*dT*dA*dA*d[5mC]*dT*dA*dT*dA*eA*e[5mC]*eA*eA) [compound 548783] | 0
548738 (DNA eT*eA*e[5mC]*eT*dA*dG*dT*dT*dT*d[5mC]*d[5mC]*dT*dA*eT*eA*eA*e[5mC]; antisense) [compound 548738] | 0

same assay, conditions: human PKK mRNA, HepaRG cells; 5-10-5 motif oligonucleotides targeting SEQ ID NO: 1 and 10

Substance | % inhibition [%]
547649 (eA*e[5mC]*e[5mC]*eT*eA*dT*dA*dA*d[5mC]*dA*dG*dT*dA*dT*d[5mC]*eA*e[5mC]*eT*eG*eT; antisense) [compound 547649] | 73
547663 (eT*eA*e[5mC]*e[5mC]*eT*dA*dT*dA*dA*d[5mC]*dT*dA*dT*dA*dA*e[5mC]*eA*eG*eT*eA; antisense) [compound 547663] | 10
547655 (eA*eA*eT*eA*eT*d[5mC]*dA*d[5mC]*dT*dG*dT*d[5mC]*d[5mC]*dT*dA*eT*eA*eA*e[5mC]*eT; antisense) [compound 547655] | 37
